Measured values: patent US20130317027A1, “COMPOUNDS AND THERAPEUTIC USES THEREOF” (Myrexis, Inc, priority 2010, published 2013)

Test system: MDA-MB-436 cells
Assay: Synergy between Nampt inhibitors and the PARP inhibitor olaparib in BRCA1-deficient cells
Format: cell-based
Settings: loss of BRCA1 function
Procedure: Experiments were conducted in HCT116 cells.
This was not fully unexpected, as PARP inhibitors are relatively benign to cells (like HCT116 cells) that have a functional homologous recombination (HR) system to repair double stranded DNA damage (Ashworth A. Journal of Clinical Oncology 26(22):3785-90 (2008)). In fact, the model (FIG. 1A) predicts that inhibiting an enzyme, such as PARP, that consumes NAD^+ would protect HR-proficient cells from Nampt inhibition. However, in cells that have lost the function of BRCA tumor suppressors, HR function is compromised, and these cells are killed by PARP inhibitors (Ashworth A. (2008) Journal of Clinical Oncology 26(22):3785-90). Thus, it was hypothesized that PARP inhibitors, while being antagonistic with Nampt inhibitors in most cells, would be synergistic in cells with BRCA mutations that render the cells HR-deficient (FIG. 1B). Indeed, in MDA-MB-436 cells, which have a loss of BRCA1 function, Nampt inhibitors (a known Nampt inhibitor, Exemplary Compound A and Exemplary Compound I, both Exemplary Compounds identified hereinafter) and the PARP inhibitor olaparib synergized in causing cell death. […] Of further significance to these findings, it is becoming clear that other routes of HR deficiency in oncogenesis (other than BRCA sequence mutation) could also lead to sensitivity to PARP inhibition plus Nampt inhibitor combination therapy. […]

## O=C(NCc1cccnc1)Nc1ccc(COc2ccccc2-c2ccccc2)cc1 [Exemplary Compound A]
  drug interaction with the PARP inhibitor olaparib in causing cell death: synergized
